# Results from patent US9101613B2, “Methods for treating neurological disease” (Neurim Pharmaceuticals (1991) Ltd., priority 2006, dated 2015).
# Experiments:
# Format in all cases: in vivo
# [1] = system: C57BL/6 mice; experiment: MPTP mouse model of Parkinson's disease, open field test
# Text: (§1) Three-month-old male C57BL/6 mice were housed in groups of 5 animals per cage (50 cm×25 cm×20 cm) in a temperature- and humidity-controlled environment with ad libitum access to food and water. Animals were maintained on a 12 hr light/dark schedule, with lights on at 7 A.M.
# Six groups of mice were used: (1) the control mice treated with saline and vehicle (n=10), (2) the N-[2-(5-methoxy-indol-3-yl)-ethyl]-comanilamide control mice treated with saline and N-[2-(5-methoxy-indol-3-yl)-ethyl]-comanilamide at 100 or 200 mg/kg (n=5, respectively), (3) the MPTP mice treated with MPTP and vehicle (n=10) and (4) the N-[2-(5-methoxy-indol-3-yl)-ethyl]-comanilamide-treated MPTP mice treated with MPTP and N-[2-(5-methoxy-indol-3-yl)-ethyl]-comanilamide at 100 or 200 mg/kg (n=10, respectively). Mice received daily (i.p.) injections of saline or MPTP (30 mg/kg/day) dissolved in physiological saline for five consecutive days to induce Parkinsonism. […]
# For the open field test, the mice were taken from their home cages and transported to the locomotor test chambers (40×40×50 cm) for 5 min and their behaviors were recorded as digital videos. The digital videos then were analyzed off-line. The distance of each mouse traveling in the locomotor test chamber was analyzed by the commercial software.
# [2] = system: C57BL/6 mice; experiment: MPTP mouse model of Parkinson's disease, striatal dopamine, DOPAC and HVA levels (HPLC)
# Text: as §1
# (§2) Six groups of mice were used: (1) the control mice treated with saline and vehicle (n=10), (2) the N-[2-(5-methoxy-indol-3-yl)-ethyl]-comanilamide control mice treated with saline and N-[2-(5-methoxy-indol-3-yl)-ethyl]-comanilamide at 100 or 200 mg/kg (n=5, respectively), (3) the MPTP mice treated with MPTP and vehicle (n=10) and (4) the N-[2-(5-methoxy-indol-3-yl)-ethyl]-comanilamide-treated MPTP mice treated with MPTP and N-[2-(5-methoxy-indol-3-yl)-ethyl]-comanilamide at 100 or 200 mg/kg (n=10, respectively). Mice received daily (i.p.) injections of saline or MPTP (30 mg/kg/day) dissolved in physiological saline for five consecutive days to induce Parkinsonism. N-[2-(5-methoxy-indol-3-yl)-ethyl]-comanilamide or vehicle was administered (i.p.) once per day for 17 days, starting on the first day of MPTP injections. Open field test, pole test, forepaw stride length test and traction test were conducted on day 14, 15, 16 and 17 after the first injections of MPTP, respectively.
# To measure striatal dopamine, DOPAC and HVA levels, mice were sacrificed at day 17 after the final injection of MPTP. The striata were dissected and stored at −70° C. before assays. Striatal dopamine levels were measured by high performance liquid chromatography (HPLC) with electrochemical detection.
# [3] = system: C57BL/6 mice; experiment: MPTP mouse model of Parkinson's disease, pole test
# Text: as §1, §2
# In the pole test, the mouse was placed head upward on the top of a vertical wooden rough-surfaced pole (diameter: 1 cm, height: 50 cm), then allowed to descend five times. Each mouse was habituated to the apparatus two sessions (one session per day) before the day of first MPTP injections. The total time until the mouse reached the floor with its four paws was recorded (T-total) as well as the time needed for the mouse to turn completely head downward (T-turn). For each session of five descents, the best performance was kept for the T-turn and T-total. If the mouse was unable to turn completely downwards, fell or slipped down, the default value of 20 s was taken into account.
# [4] = saline mice, 100 or 200 mg/kg i.p., both p>0.05
# [5] = MPTP mice, 100 or 200 mg/kg/day i.p.
structure (smiles),measurement,setting,value
COc1ccc2[nH]cc(CCNC(=O)c3cc(=O)cco3)c2c1 [N-[2-(5-methoxy-indol-3-yl)-ethyl]-comanilamide],"traveled distance, open field test, vs MPTP mice","[1]; MPTP mice, 100 or 200 mg/kg i.p. once per day, day 14, both p<0.01",showed more level of the traveled distance
same,"traveled distance, open field test, vs control mice",[1]; [4],no significant difference in the traveled distance
same,striatal dopamine level vs MPTP mice,"[2]; MPTP mice, 100 or 200 mg/kg i.p., p<0.01 and p<0.05, respectively",showed more level of dopamine concentration
same,striatal DOPAC level,[2]; [5],ameliorated the MPTP-induced reductions
same,striatal HVA level,[2]; [5],ameliorated the MPTP-induced reductions
same,striatal dopamine level vs control mice,[2]; [4],no significant difference in dopamine level
same,"T-turn, pole test, vs MPTP mice","[3]; 100 mg/kg i.p., p<0.05",showed less level of the T-turn
same,"T-turn, pole test, vs MPTP mice","[3]; 200 mg/kg i.p., p>0.05",no significant difference in the T-turn
same,"T-turn, pole test, vs control mice",[3]; [4],no significant difference in the T-turn
